These compounds were tested against T1, JNK3(h) (Homo sapiens, UniProt P53779) (assay: Kinase HotSpot radiometric assay, JNK3). Conditions: ATP 10 μM, substrate ATF2 5 μM; read-out: JNK3 inhibitory activity IC50.
T1 construct: purchased Reaction Biology Corp
Format: biochemical

T1 sequence (P53779 whole entry): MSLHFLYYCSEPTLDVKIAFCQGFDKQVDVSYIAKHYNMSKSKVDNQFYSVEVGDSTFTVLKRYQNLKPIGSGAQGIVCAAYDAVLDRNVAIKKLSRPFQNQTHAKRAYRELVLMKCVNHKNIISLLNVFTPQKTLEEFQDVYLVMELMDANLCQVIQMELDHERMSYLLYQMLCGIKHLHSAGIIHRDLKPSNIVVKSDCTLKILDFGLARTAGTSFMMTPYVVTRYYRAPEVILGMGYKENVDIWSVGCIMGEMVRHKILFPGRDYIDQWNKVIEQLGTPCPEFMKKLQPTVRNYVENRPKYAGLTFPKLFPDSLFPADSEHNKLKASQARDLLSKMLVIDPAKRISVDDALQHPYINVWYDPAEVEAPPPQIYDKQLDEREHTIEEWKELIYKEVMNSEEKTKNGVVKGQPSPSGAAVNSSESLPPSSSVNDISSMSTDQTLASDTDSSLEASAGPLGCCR

| IC50 [nM] | Compound |
| --- | --- |
| 1430 | Oc1ccc2nc(-c3ccc4ccccc4c3)n(-c3ccnc(NC4CCOCC4)n3)c2c1 [22a, 2-(Naphthalen-2-yl)-1-(2-((tetrahydro-2H-pyran-4-yl)amino)pyrimidin-4-yl)-1H-benzo[d]imidazol-6-ol] |
| 1550 | Oc1ccc2nc(-c3ccc4c(c3)OCCO4)n(-c3ccnc(NC4CCOCC4)n3)c2c1 [22b, 2-(2,3-Dihydrobenzo[b][1,4]dioxin-6-yl)-1-(2-((tetrahydro-2H-pyran-4-yl)amino)pyrimidin-4-yl)-1H-benzo[d]imidazol-6-ol] |
| 2190 | Oc1ccc2nc(-c3ccc4occc4c3)n(-c3ccnc(NC4CCOCC4)n3)c2c1 [22c, 2-(Benzofuran-5-yl)-1-(2-((tetrahydro-2H-pyran-4-yl)amino)pyrimidin-4-yl)-1H-benzo[d]imidazol-6-ol] |
| 45 | Oc1ccc2nc(-c3ccc4ccccc4c3)n(-c3ccnc(NC4CCCCC4)n3)c2c1 [23a, 1-(2-(Cyclohexylamino)pyrimidin-4-yl)-2-(naphthalen-2-yl)-1H-benzo[d]imidazol-6-ol] |
| 281 | Oc1ccc2nc(-c3ccc4c(c3)OCCO4)n(-c3ccnc(NC4CCCCC4)n3)c2c1 [23b, 1-(2-(Cyclohexylamino)pyrimidin-4-yl)-2-(2,3-dihydrobenzo[b][1,4]dioxin-6-yl)-1H-benzo [d]imidazol-6-ol] |
| 71 | Oc1ccc2nc(-c3ccc4occc4c3)n(-c3ccnc(NC4CCCCC4)n3)c2c1 [23c, 2-(Benzofuran-5-yl)-1-(2-(cyclohexylamino)pyrimidin-4-yl)-1H-benzo[d]imidazol-6-ol] |
| 110 | Oc1ccc2nc(-c3ccc(Cl)c(Cl)c3)n(-c3ccnc(NC4CCCCC4)n3)c2c1 [23d, 1-(2-(Cyclohexylamino)pyrimidin-4-yl)-2-(3,4-dichlorophenyl)-1H-benzo[d]imidazol-6-ol] |
| 305 | Oc1ccc2nc(-c3ccc(F)c(C(F)(F)F)c3)n(-c3ccnc(NC4CCCCC4)n3)c2c1 [23e, 1-(2-(Cyclohexylamino)pyrimidin-4-yl)-2-(4-fluoro-3-(trifluoromethyl)phenyl)-1H-benzo [d]imidazol-6-ol] |
| 424 | Oc1ccc2nc(-c3ccc4ccccc4n3)n(-c3ccnc(NC4CCCCC4)n3)c2c1 [23f, 1-(2-(Cyclohexylamino)pyrimidin-4-yl)-2-(quinolin-2-yl)-1H-benzo[d]imidazol-6-ol] |
| 114 | O=C(C1CC1)N1CCC[C@H](Nc2nccc(-n3c(-c4ccc5c(c4)OCCO5)nc4ccc(O)cc43)n2)C1 [26b, (S)-Cyclopropyl(3-((4-(2-(2,3-dihydrobenzo[b][1,4]dioxin-6-yl)-6-hydroxy-1H-benzo[d]imidazol-1-yl)pyrimidin-2-yl)amino)piperidin-1-yl)methanone] |
| 42 | O=C(C1CC1)N1CCC[C@H](Nc2nccc(-n3c(-c4ccc5occc5c4)nc4ccc(O)cc43)n2)C1 [26c, (S)-(3-((4-(2-(Benzofuran-5-yl)-6-hydroxy-1H-benzo[d]imidazol-1-yl)pyrimidin-2-yl)amino)piperidin-1-yl)(cyclopropyl)methanone] |
| 22 | O=C(C1CC1)N1CCC[C@H](Nc2nccc(-n3c(-c4ccc(Cl)c(Cl)c4)nc4ccc(O)cc43)n2)C1 [26d, (S)-Cyclopropyl(3-((4-(2-(3,4-dichlorophenyl)-6-hydroxy-1H-benzo[d]imidazol-1-yl)pyrimidin-2-yl)amino)piperidin-1-yl)methanone] |
| 100 | O=C(C1CC1)N1CCC[C@H](Nc2nccc(-n3c(-c4ccc(F)c(C(F)(F)F)c4)nc4ccc(O)cc43)n2)C1 [26e, (S)-Cyclopropyl(3-((4-(2-(4-fluoro-3-(trifluoromethyl)phenyl)-6-hydroxy-1H-benzo[d]imidazol-1-yl)pyrimidin-2-yl)amino)piperidin-1-yl)methanone] |
| 189 | O=C(C1CC1)N1CCC[C@H](Nc2nccc(-n3c(-c4ccc5ccccc5n4)nc4ccc(O)cc43)n2)C1 [26f, (S)-Cyclopropyl(3-((4-(6-hydroxy-2-(quinolin-2-yl)-1H-benzo[d]imidazol-1-yl)pyrimidin-2-yl)amino)piperidin-1-yl)methanone] |

Continued, compound first:

| Compound | IC50 [nM] |
| --- | --- |
| Oc1ccc2c(c1)nc(-c1ccc3ccccc3c1)n2-c1ccnc(NC2CCOCC2)n1 [9a] | 1480 |
| Oc1ccc2c(c1)nc(-c1ccc3c(c1)OCCO3)n2-c1ccnc(NC2CCOCC2)n1 [9b, 2-(2,3-Dihydrobenzo[b][1,4]dioxin-6-yl)-1-(2-((tetrahydro-2H-pyran-4-yl)amino)pyrimidin-4-yl)-1H-benzo[d]imidazol-5-ol] | > 10000 |
| Oc1ccc2c(c1)nc(-c1ccc3occc3c1)n2-c1ccnc(NC2CCOCC2)n1 [9c, 2-(Benzofuran-5-yl)-1-(2-((tetrahydro-2H-pyran-4-yl)amino)pyrimidin-4-yl)-1H-benzo[d] imidazol-5-ol] | 4310 |
| Oc1ccc2c(c1)nc(-c1ccc3ccccc3c1)n2-c1ccnc(NC2CCCCC2)n1 [10a, 1-(2-(cyclohexylamino)pyrimidin-4-yl)-2-(naphthalen-2-yl)-1H-benzo[d]imidazol-5-ol] | 420 |
| Oc1ccc2c(c1)nc(-c1ccc3c(c1)OCCO3)n2-c1ccnc(NC2CCCCC2)n1 [10b, 1-(2-(Cyclohexylamino)pyrimidin-4-yl)-2-(2,3-dihydrobenzo[b][1, 4]dioxin-6-yl)-1H-benzo [d]imidazol-5-ol] | 1210 |
| Oc1ccc2c(c1)nc(-c1ccc3occc3c1)n2-c1ccnc(NC2CCCCC2)n1 [10c, 2-(Benzofuran-5-yl)-1-(2-(cyclohexylamino)pyrimidin-4-yl)-1H-benzo[d]imidazol-5-ol] | 299 |
| Oc1ccc2c(c1)nc(-c1ccc(Cl)c(Cl)c1)n2-c1ccnc(NC2CCCCC2)n1 [10d, 1-(2-(Cyclohexylamino)pyrimidin-4-yl)-2-(3,4-dichlorophenyl)-1H-benzo[d]imidazol-5-ol] | 139 |
| Oc1ccc2c(c1)nc(-c1ccc(F)c(C(F)(F)F)c1)n2-c1ccnc(NC2CCCCC2)n1 [10e, 1-(2-(Cyclohexylamino)pyrimidin-4-yl)-2-(4-fluoro-3-(trifluoromethyl)phenyl)-1H-benzo [d]imidazol-5-ol] | 799 |
| Oc1ccc2c(c1)nc(-c1ccc3ccccc3n1)n2-c1ccnc(NC2CCCCC2)n1 [10f, 1-(2-(Cyclohexylamino)pyrimidin-4-yl)-2-(quinolin-2-yl)-1H-benzo[d]imidazol-5-ol] | 424 |
| O=C(C1CC1)N1CCC[C@H](Nc2nccc(-n3c(-c4ccc5ccccc5c4)nc4cc(O)ccc43)n2)C1 [13a, (S)-cyclopropyl(3-((4-(5-hydroxy-2-(naphthalen-2-yl)-1H-benzo[d]imidazol-1-yl)pyrimidin-2-yl)amino)piperidin-1-yl)methanone] | 391 |
| O=C(C1CC1)N1CCC[C@H](Nc2nccc(-n3c(-c4ccc5c(c4)OCCO5)nc4cc(O)ccc43)n2)C1 [13b, (S)-Cyclopropyl(3-((4-(2-(2,3-dihydrobenzo[b][1, 4]dioxin-6-yl)-5-hydroxy-1H-benzo[d]imidazol-1-yl)pyrimidin-2-yl)amino)piperidin-1-yl)methanone] | 679 |
| O=C(C1CC1)N1CCC[C@H](Nc2nccc(-n3c(-c4ccc5occc5c4)nc4cc(O)ccc43)n2)C1 [13c, (S)-(3-((4-(2-(Benzofuran-5-yl)-5-hydroxy-1H-benzo[d]imidazol-1-yl)pyrimidin-2-yl)amino)piperidin-1-yl)(cyclopropyl)methanone] | 287 |
| O=C(C1CC1)N1CCC[C@H](Nc2nccc(-n3c(-c4ccc(Cl)c(Cl)c4)nc4cc(O)ccc43)n2)C1 [13d, (S)-Cyclopropyl(3-((4-(2-(3,4-dichlorophenyl)-5-hydroxy-1H-benzo[d]imidazol-1-yl)pyrimidin-2-yl)amino)piperidin-1-yl)methanone] | 128 |
| O=C(C1CC1)N1CCC[C@H](Nc2nccc(-n3c(-c4ccc(F)c(C(F)(F)F)c4)nc4cc(O)ccc43)n2)C1 [13e, (S)-Cyclopropyl(3-((4-(2-(4-fluoro-3-(trifluoromethyl)phenyl)-5-hydroxy-1H-benzo[d]imidazol-1-yl)pyrimidin-2-yl)amino)piperidin-1-yl)methanone] | 679 |
| O=C(C1CC1)N1CCC[C@H](Nc2nccc(-n3c(-c4ccc5ccccc5n4)nc4cc(O)ccc43)n2)C1 [13f, (S)-Cyclopropyl(3-((4-(5-hydroxy-2-(quinolin-2-yl)-1H-benzo[d]imidazol-1-yl)pyrimidin-2-yl)amino)piperidin-1-yl)methanone] | 161 |

Same assay, conditions: read-out: JNK3 IC50

| IC50 [nM] | Compound |
| --- | --- |
| ~20 | O=C(C1CC1)N1CCC[C@H](Nc2nccc(-n3c(-c4ccc(Cl)c(Cl)c4)nc4ccc(O)cc43)n2)C1 [26d, (S)-Cyclopropyl(3-((4-(2-(3,4-dichlorophenyl)-6-hydroxy-1H-benzo[d]imidazol-1-yl)pyrimidin-2-yl)amino)piperidin-1-yl)methanone] |

— publication PMC8539420, “Discovery of a Potent and Selective JNK3 Inhibitor with Neuroprotective Effect Against Amyloid β-Induced Neurotoxicity in Primary Rat Neurons” (International Journal of Molecular Sciences, 2021)
